“And” between values parts separate entries of the source, which are not always exact repeats. Equal values may be shown once.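 Compound exposure: 48 hours, 5 concentrations, 96-well plates. GI50 marks 50% less growth. The concentration for full growth arrest is given as TGI.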
Experiments:
Assay in all cases: inhibition of tumour cell growth, NCI panel, 48 h
OVCAR-3 ovarian = system: OVCAR-3 ovarian
SNB-19 CNS = system: SNB-19 CNS
SK-MEL-5 melanoma = system: SK-MEL-5 melanoma
SK-OV-3 ovarian = system: SK-OV-3 ovarian
OVCAR-8 ovarian = system: OVCAR-8 ovarian
NCI-H522 lung = system: NCI-H522 lung
K-562 leukemia = system: K-562 leukemia
EKVX NSCLC = system: EKVX NSCLC
HOP-92 NSCLC = system: HOP-92 NSCLC
TK-10 renal = system: TK-10 renal

| SMILES | GI50 (OVCAR-3 ovarian) | TGI (OVCAR-3 ovarian) | GI50 (SNB-19 CNS) | TGI (SNB-19 CNS) | GI50 (SK-MEL-5 melanoma) | TGI (SK-MEL-5 melanoma) | GI50 (SK-OV-3 ovarian) | TGI (SK-OV-3 ovarian) | GI50 (OVCAR-8 ovarian) | TGI (OVCAR-8 ovarian) | GI50 (NCI-H522 lung) | TGI (NCI-H522 lung) | GI50 (K-562 leukemia) | TGI (K-562 leukemia) | GI50 (EKVX NSCLC) | TGI (EKVX NSCLC) | TGI (HOP-92 NSCLC) | GI50 (TK-10 renal) | TGI (TK-10 renal) | GI50 (HOP-92 NSCLC) |
| --- | --- | --- | --- | --- | --- | --- | --- | --- | --- | --- | --- | --- | --- | --- | --- | --- | --- | --- | --- | --- |
| C[C@]12CC[C@@H]3c4ccc(Oc5nc(N6CC6)nc(N6CC6)n5)cc4CC[C@H]3[C@@H]1CCC2=O | 3860 nM | 15.3 µM | 7.25 µM | 21.5 µM | 1540 nM | 3.13 µM | 3310 nM | 13.9 µM | 2640 nM | 23.8 µM | 1910 nM | 4.57 µM | 3020 nM | 17.5 µM |  |  |  |  |  |  |
| Cc1cc(C2CCCCC2)n(O)c(=O)c1 | 521 nM | 54 µM | 2.37 µM | > 100 µM | 1490 nM | 7.38 µM and 38.3 µM | 1910 nM | > 100 µM | 1920 nM | > 100 µM | 4800 nM | 49.9 µM and 35.2 µM |  | > 100 µM | 2400 nM | > 100 µM | 21.5 µM | 9.91 µM | > 100 µM |  |
| CN(C)C(=S)SN(C)C(=O)Nc1ccccc1 |  | 41.2 µM |  | > 100 µM |  | 46.4 µM |  | > 100 µM |  | > 93.7 µM |  | 3.5 µM |  | > 100 µM |  | > 100 µM | 22.2 µM |  | > 100 µM |  |
| Nc1c(-c2ccc(Br)cc2)[n+]([O-])c2ccccc2[n+]1[O-] |  | > 100 µM |  | > 100 µM |  | > 100 µM |  | > 100 µM |  | > 100 µM |  | > 100 µM |  | > 100 µM |  | > 100 µM | > 100 µM |  |  |  |
| CSc1ccc(/C=C2/C[N+](C)(C)C/C(=C/c3ccc(SC)cc3)C2=O)cc1 |  | 38.3 µM |  |  |  |  |  |  |  |  |  | 21.3 µM |  | > 100 µM |  | 35.1 µM | 42.1 µM |  | > 100 µM |  |
| CCOC(=O)NC(=O)c1cn(CCCOC(=O)NCCCCCCNC(=O)OCCCn2c(=O)c(C(=O)NC(=O)OCC)cn(C)c2=O)c(=O)n(C)c1=O |  | > 100 µM |  |  |  |  |  | > 100 µM |  | > 100 µM |  | > 100 µM |  | > 100 µM |  |  | > 100 µM |  | > 100 µM |  |
| CN(C)C(=S)/N=c1\ss/c(=N\C(=S)N(C)C)n1-c1ccc2c(c1)OCO2 |  | > 100 µM |  | > 100 µM |  | > 100 µM |  | > 100 µM |  | > 100 µM |  | > 100 µM |  | > 100 µM |  | > 100 µM |  |  | > 100 µM |  |
| CCc1cccc(C)c1NC(C)=O |  | > 100 µM |  |  |  | > 100 µM |  | > 100 µM |  | > 100 µM |  |  |  | > 100 µM |  | > 100 µM |  |  | > 100 µM |  |
| CCOC(=O)[C@H]1Nc2ccc(C)cc2C2c3ccccc3CC21 (stereo partly specified) |  | > 100 µM |  | > 100 µM |  | > 100 µM |  |  |  | > 100 µM |  | > 100 µM |  | > 100 µM |  | > 100 µM |  |  | > 100 µM |  |
| CCCCC/C=C/C/C=C/CCCCCCCC1=NC(C)(C)CN1C(C)C | 1490 nM | 2.81 µM | 1.59 µM | 3 µM |  |  | 3070 nM | 12.6 µM |  |  | 1720 nM | 3.17 µM |  |  | 1300 nM | 2.73 µM | 3.37 µM | 1.67 µM | 3.04 µM | 1310 nM |
| Cc1cc(C)cc(Nc2cc(C)nc3nc(C(F)(F)F)nn23)c1 | > 100000 nM | > 100 µM | > 100 µM | > 100 µM | > 100000 nM | > 100 µM | 81500 nM | > 100 µM | > 100000 nM | > 100 µM |  |  |  |  |  |  | 97.9 µM | > 100 µM | > 100 µM | 26200 nM |
| CNC=O.[O]=[Ge].[O]=[Ge].[O]=[Ge].[O]=[Ge][OH].[O]=[Ge][OH] |  | > 100 µM |  | > 100 µM |  | > 100 µM |  |  |  | > 100 µM |  |  |  | > 100 µM |  | > 100 µM | > 100 µM |  | > 100 µM |  |
| O=S(O)CCCCSSCCCCSSCCCCS(=O)O |  | > 100 µM |  | > 100 µM |  | 24.3 µM |  | > 100 µM |  | > 100 µM |  | 35.6 µM |  | > 100 µM |  | 66.3 µM |  |  | 91.4 µM |  |
| COC(=O)C(=O)C(C(=O)C(=O)Nc1ccc(C)cc1C)c1nc2ccccc2[nH]c1=O (stereo unspecified) |  | > 100 µM |  | > 100 µM |  | > 100 µM |  | > 100 µM |  | > 100 µM |  | 93 µM |  | > 100 µM |  | > 100 µM |  |  | > 100 µM |  |
| Cn1cc(C2=C(c3cn(C)c4c(N)cccc34)C(=O)NC2=O)c2ccccc21 | 507 nM | 1.45 µM | 4.34 µM | > 25 µM | 1380 nM | > 14.2 µM | 1220 nM | > 20.1 µM | 2850 nM | > 25 µM | 996 nM | > 15 µM | 385 nM | > 25 µM |  |  |  | 4.28 µM | 18.3 µM |  |
| CCN(CC)C(=O)C/C(C)=N/NC(=O)c1ccncc1 |  | > 100 µM |  |  |  | > 100 µM |  | > 100 µM |  | > 100 µM |  | > 100 µM |  | > 100 µM |  | > 100 µM | > 100 µM |  | > 100 µM |  |
| COc1ccc(S(=O)(=O)N(Cc2ccc3c(n2)C=CC(C)(C)O3)C2CCC2)cc1OC | < 10 nM | 0.0955 µM |  |  | < 10 nM | 0.0376 µM | < 10 nM | < 0.01 µM | < 10 nM |  | < 10 nM | 0.0768 µM | < 10 nM | > 100 µM |  |  | < 0.01 µM | < 0.01 µM | 1.59 µM | < 10 nM |
| COc1cccc(NCc2nnc(Nc3ccc(Cl)cc3)c3ccccc23)c1 | 1650 nM | 10 µM | 3.5 µM | 13 µM | 819 nM | 4.18 µM | 1130 nM | 8.19 µM | 3610 nM | 14.7 µM | 302 nM | 3.31 µM | 1490 nM | 13.1 µM | 588 nM | 6.4 µM | 2.91 µM |  |  | 329 nM |
| Cc1c2c(nn1-c1ccc(S(=O)(=O)/N=C3\SCC(=O)N3C(=O)c3ccccc3)cc1)-c1ccccc1CC2 | 15800 nM | 39.1 µM |  |  | 25100 nM | 48.9 µM |  |  | 68800 nM | > 100 µM | 96200 nM | > 100 µM | 79200 nM | > 100 µM | 40500 nM | 90.7 µM | 66.2 µM | 98 µM | > 100 µM | 30900 nM |

Reference: PubChem BioAssay (NCI)
